Earlier results on 1 molecule are cited in patent publication US20220378861A1, “COMPOSITIONS AND METHODS FOR DELIVERING CANNABINOIDS USING MICRONEEDLE DEVICES TO THE SKIN” (AQUAVIT PHARMACEUTICALS, INC., priority 2019, published 2022).

The conditions of the data set: oral absorption, after extensive first pass liver metabolism.

For the molecule `CCCCCc1cc(O)c2c(c1)OC(C)(C)[C@@H]1CCC(C)=C[C@@H]21` [THC, tetrahydrocannabinol], the “bioavailability to the systemic circulation” value is 6%.
